Laboratory results as given in US8309582B2, “Small molecule Bcl-Xl/Bcl-2 binding inhibitors” (The Ohio State University Research Foundation, priority 2004, dated 2012).
Read-outs that look alike come from different tables or passages of the source.

Assays:
Bcl-2 = Bcl-2 (Homo sapiens, UniProt P10415); test: Competitive fluorescence polarization assay, displacement of Flu-BakBH3 peptide from Bcl-2; format: binding
Method: (§1) Competitive Fluorescence Polarization Assay. The binding affinity of the test agent to Bcl-2 and Bcl-xL was analyzed by a competitive fluorescence polarization assay, in which the ability of the agent to displace the binding of a Bak BH3-domain peptide to either Bcl-2 or Bcl-xL was determined. Flu-BakBH3, a Bak-BH3 peptide labeled at the N-terminus with fluorescein, was purchased from Genemed Synthesis (San Francisco, Calif.). C-Terminal-truncated, His-tagged Bcl-xL was purchased from EMD Biosciences (San Diego, Calif.), and soluble GST-fused Bcl-2 was obtained from Santa Cruz (Santa Cruz, Calif.). The KD determination was carried out in a dual-pathlength quartz cell with readings taken at […] at room temperature using a luminescence spectrometer according to an established procedure (17). Determination of IC50 values. Data from cell viability and FP assays were analyzed by using the CalcuSyn software (Biosoft, Ferguson, Mo.) to determine IC50 values, in which the calculation was based on the medium effect equation (18), i.e., Log(fa/fu)=m log(D)−m log(Dm) (equation 1), where fa and fu denote fraction affected and unaffected, respectively; m represents the Hill-type coefficient signifying the sigmoidicity of the dose-effect curve; D and Dm are the dose used and IC50, respectively.

Bcl-xL = biological target: T1, Bcl-xL (Homo sapiens, UniProt Q07817); test: Competitive fluorescence polarization assay, displacement of Flu-BakBH3 peptide from Bcl-xL; format: binding
T1 construct: fused on or other part: His tag
Method: as §1

PC-3 cells = test: Cell viability analysis (MTT) in PC-3 cells; format: cell-based; details: Homo sapiens, PC-3, PC-3 cells, read-out: IC50 (μM) PC3
Method: Cell viability analysis. The effect of individual test agents on cell viability was assessed by using the MTT {[3-(4,5-dimethylthiazol-2-yl)-2,5-diphenyl-2H-tetrazolium bromide]} assay in six to twelve replicates. […] Controls received DMSO vehicle at a concentration equal to that in drug-treated cells. […] Supernatants were removed from the wells, and the reduced MTT dye was solubilized in 200 μl/well DMSO. Absorbance at 570 nm was determined on a plate reader.
(§2) Determination of IC50 values. Data from cell viability and FP assays were analyzed by using the CalcuSyn software (Biosoft, Ferguson, Mo.) to determine IC50 values, in which the calculation was based on the medium effect equation (18), i.e., Log(fa/fu)=m log(D)−m log(Dm) (equation 1), where fa and fu denote fraction affected and unaffected, respectively; m represents the Hill-type coefficient signifying the sigmoidicity of the dose-effect curve; D and Dm are the dose used and IC50, respectively.

[1] = WB (IC50 for WB, Tables 1-9); format: cell-based; details: marker, cell line and unit inferred
Method: Immunoblotting. Cells in T-75 flasks were collected by scraping, and suspended in 60 μl of phosphate-buffered saline (PBS). Two μl of the suspension was taken for protein analysis using the Bradford assay kit (Bio-Rad, Hercules, Calif.). To the remaining solution was added the same volume of 2×SDS-PAGE sample loading buffer (100 mM Tris-HCl, pH 6.8, 4% SDS, 5% β-mercaptoethanol 20% glycerol, and 0.1% bromophenol blue). The mixture was sonicated briefly, and boiled for 5 min. Equal amounts of proteins were loaded onto 10% SDS-PAGE gels.
After electrophoresis, protein bands were transferred to nitrocellulose membranes in a semidry transfer cell. The transblotted membrane was washed twice with Tris-buffered saline (TBS) containing 0.1% Tween 20 (TBST). After blocking with TBST containing 5% nonfat milk for 40 min, the membrane was incubated with the appropriate primary antibody in TBST-1% nonfat milk at 4° C. overnight. All primary antibodies were diluted 1:1000 in 1% nonfat milk-containing TBST. After treatment with the primary antibody, the membrane was washed three times with TBST for a total of 15 min, followed by incubation with goat anti-rabbit or anti-mouse IgG-horseradish peroxidase conjugates (diluted 1:5000) for 1 h at room temperature and three washes with TBST for a total of 1 h. The immunoblots were visualized by enhanced chemiluminescence.

[2] = MTT assay (IC50 for MTT, Tables 1-9); format: cell-based; details: cell line and unit inferred
Method: Cell viability analysis. The effect of individual test agents on cell viability was assessed by using the MTT {[3-(4,5-dimethylthiazol-2-yl)-2,5-diphenyl-2H-tetrazolium bromide]} assay in six to twelve replicates. Cells were seeded and incubated in 96-well, flat-bottomed plates in serum-free media for 24 h, and were exposed to various concentrations of test agents dissolved in DMSO (final concentration, 0.1%) in serum-free RPMI 1640 medium for different time intervals. Controls received DMSO vehicle at a concentration equal to that in drug-treated cells. The medium was removed, replaced by 200 μl of 0.5 mg/ml of MTT in 10% FBS-containing RPMI-1640 medium, and cells were incubated in the CO2 incubator at 37° C. for 2 h. Supernatants were removed from the wells, and the reduced MTT dye was solubilized in 200 μl/well DMSO. Absorbance at 570 nm was determined on a plate reader.
as §2

[3] = unit inferred, read-out: IC50 for inhibiting BH3-mediated protein interactions (Bcl-2)
[4] = unit inferred, read-out: IC50 for inhibiting BH3-mediated protein interactions (Bcl-xL)
[5] = inhibition of Bak BH3 peptide binding to Bcl-2, FP, read-out: IC50 Bcl-2/Bak
[6] = inhibition of Bak BH3 peptide binding to Bcl-xL, FP, read-out: IC50 Bcl-xl/Bak

Bcl-2, sequence (P10415 whole entry, the tested form may be a part): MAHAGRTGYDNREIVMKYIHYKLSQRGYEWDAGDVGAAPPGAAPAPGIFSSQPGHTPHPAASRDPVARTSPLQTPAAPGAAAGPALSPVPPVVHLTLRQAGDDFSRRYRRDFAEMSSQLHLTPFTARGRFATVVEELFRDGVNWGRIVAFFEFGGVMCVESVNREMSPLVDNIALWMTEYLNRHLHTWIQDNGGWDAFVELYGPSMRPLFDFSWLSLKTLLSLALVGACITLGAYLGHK
T1 sequence (Q07817 1-209 limits assumed): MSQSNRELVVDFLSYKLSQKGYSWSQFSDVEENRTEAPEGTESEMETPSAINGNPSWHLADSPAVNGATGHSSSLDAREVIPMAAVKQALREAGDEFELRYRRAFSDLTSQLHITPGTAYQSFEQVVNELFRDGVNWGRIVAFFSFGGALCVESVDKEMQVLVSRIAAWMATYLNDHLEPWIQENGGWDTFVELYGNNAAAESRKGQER

SMILES | IC50 (Bcl-2; [3]) | IC50 (Bcl-xL; [4]) | IC50 (PC-3 cells) | IC50 (Bcl-2; [5]) | IC50 (Bcl-xL; [6]) | IC50 [1] | IC50 [2]
CCc1ccc(CCOc2ccc(CC3SC(=O)NC3=O)cc2)nc1 (stereo not drawn) [PG, pioglitazone, reference compound] | > 50 µM | > 50 µM |  |  |  |  | 
CN(CCOc1ccc(CC2SC(=O)NC2=O)cc1)c1ccccn1 (stereo not drawn) [RG, rosiglitazone, reference compound] | > 50 µM | > 50 µM |  |  |  |  | 
C=CCOc1c(C)c(C)c2c(c1C)CCC(C)(COc1ccc(/C=C3\SC(=S)NC3=O)cc1)O2 (stereo not drawn) [TG-3] |  |  | 10 ± 1.2 µM | 7.3 ± 0.3 µM | 4.8 ± 0.5 µM |  | 
Cc1c(C)c2c(c(C)c1OC/C=C/c1ccccc1)CCC(C)(COc1ccc(/C=C3\SC(=O)NC3=O)cc1Br)O2 (stereo not drawn) [TG-11] |  |  | 6 ± 0.3 µM | 3.1 ± 0.4 µM | 2.2 ± 0.2 µM | > 7.5 µM | 
Cc1c(C)c2c(c(C)c1OCc1ccccc1)CCC(C)(COc1ccc(/C=C3\SC(=O)NC3=O)cc1)O2 (stereo not drawn) [TG-12] |  |  | 18 ± 1.3 µM | 18 ± 0.9 µM | 14 ± 1.1 µM | 3.6 µM | 
CC(C)=CCOc1c(C)c(C)c2c(c1C)CCC(C)(COc1ccc(/C=C3\SC(=O)NC3=O)cc1)O2 (stereo not drawn) [TG-14] |  |  | 9 ± 1 µM | 4.8 ± 0.4 µM | 4.5 ± 0.4 µM | 7 µM | 
O=C1NC(=O)/C(=C/c2ccc(OCC3CCc4ccccc4C3)cc2)S1 (stereo not drawn) [TG-15] |  |  | 12 ± 0.9 µM | 18 ± 0.9 µM | 16 ± 0.5 µM | 3.8 µM | 
COc1cc(/C=C2\SC(=O)NC2=O)ccc1OCC1(C)CCc2c(C)c(OCC=C(C)C)c(C)c(C)c2O1 (stereo not drawn) [TG-16] |  |  | 4.7 ± 0.2 µM | 4.8 ± 0.5 µM | 6.5 ± 0.5 µM | 5.6 µM | 
CC(C)=CCOc1c(C)c(C)c2c(c1C)CCC(C)(COc1ccc(/C=C3\SC(=O)NC3=O)cc1C)O2 (stereo not drawn) [TG-17] |  |  | 4.8 ± 0.3 µM | 3.1 ± 0.4 µM | 2.6 ± 0.3 µM | 3.2 µM | 
C=CCOc1c(C)c(C)c2c(c1C)CCC(C)(COc1ccc(/C=C3\SC(=O)NC3=O)cc1Br)O2 (stereo not drawn) [TG-27] |  |  | 5 ± 0.5 µM | 2.7 ± 0.4 µM | 2.1 ± 0.2 µM | > 7.5 µM | 
C=CCOc1c(C)c(C)c2c(c1C)CCC(C)(COc1ccc(/C=C3\SC(=O)NC3=O)cc1OC)O2 (stereo not drawn) [TG-28] |  |  | 5.2 ± 0.5 µM | 4.4 ± 0.3 µM | 4 ± 0.3 µM | 2.3 µM | 
C=CCOc1c(C)c(C)c2c(c1C)CCC(C)(COc1ccc(/C=C3\SC(=O)NC3=O)cc1C)O2 (stereo not drawn) [TG-29] |  |  | 5.1 ± 0.4 µM | 3.5 ± 0.6 µM | 3 ± 0.3 µM | 3.6 µM | 
CC(C)=CCOc1c(C)c(C)c2c(c1C)CCC(C)(COc1ccc(/C=C3\SC(=O)NC3=O)cc1F)O2 (stereo not drawn) [TG-30] |  |  | 6 ± 0.4 µM | 3.4 ± 0.5 µM | 2.7 ± 0.3 µM | 7.2 µM | 
CC(C)=CCOc1c(C)c(C)c2c(c1C)CCC(C)(COc1ccc(/C=C3\SC(=O)NC3=O)cc1-c1ccc(F)cc1)O2 (stereo not drawn) [TG-32] |  |  | 5 ± 0.4 µM | 6.6 ± 0.6 µM | 6.5 ± 0.5 µM | > 7.5 µM | 
CC(C)=CCOc1c(C)c(C)c2c(c1C)CCC(C)(COc1c(Br)cc(/C=C3\SC(=O)NC3=O)cc1Br)O2 (stereo not drawn) [TG-34] |  |  | 4.4 ± 0.4 µM | 2.8 ± 0.4 µM | 2 ± 0.2 µM | 2.7 µM | 
CC(C)=CCOc1c(C)c(C)c2c(c1C)CCC(C)(COc1ccc(/C=C3\SC(=O)NC3=O)cc1[N+](=O)[O-])O2 (stereo not drawn) [TG-35] |  |  | > 50 µM |  |  | 2.7 µM | 
CC(C)=CCOc1c(C)c(C)c2c(c1C)CCC(C)(COc1ccc(C=C(C#N)C#N)cc1Br)O2 (stereo not drawn) [TG-36] |  |  | > 50 µM |  |  | > 7.5 µM | > 50 µM
CC(C)=CCOc1c(C)c(C)c2c(c1C)CCC(C)(COc1ccc(/C=C/C(=O)O)cc1Br)O2 (stereo not drawn) [TG-37] |  |  | 6 ± 0.7 µM |  |  | > 7.5 µM | 
CCOC(=O)C(C)(C)C(O)c1ccc(OCC2(C)CCc3c(C)c(OCC=C(C)C)c(C)c(C)c3O2)c(Br)c1 (stereo not drawn) [TG-38] |  |  | 12.5 ± 0.6 µM |  |  | 4.5 µM | > 50 µM
CC(C)=CCOc1c(C)c(C)c2c(c1C)CCC(C)(COc1ccc(C(O)C(C)(C)C(=O)O)cc1Br)O2 (stereo not drawn) [TG-39] |  |  | 7 ± 0.4 µM |  |  | > 7.5 µM | 
CC(C)=CCOc1c(C)c(C)c2c(c1C)CCC(C)(COc1ccc(/C=C3\SC(=O)NC3=O)c3ccccc13)O2 (stereo not drawn) [TG-43] |  |  | 3 ± 0.2 µM |  |  | 7.2 µM | 
COc1cc(/C=C2\SC(=O)NC2=O)cc(Br)c1OCC1(C)CCc2c(C)c(OCC=C(C)C)c(C)c(C)c2O1 (stereo not drawn) [TG-44] |  |  | 5.1 ± 0.4 µM |  |  | > 7.5 µM | 
CCOc1cc(/C=C2\SC(=O)NC2=O)ccc1OCC1(C)CCc2c(C)c(OCC=C(C)C)c(C)c(C)c2O1 (stereo not drawn) [TG-45] |  |  | 4.6 ± 0.3 µM |  |  | 6.7 µM | 
CC(C)=CCOc1c(C)c(C)c2c(c1C)CCC(C)(COc1ccc(/C=C3\SC(=S)NC3=O)c3ccccc13)O2 (stereo not drawn) [TG-46] |  |  | 5.3 ± 0.3 µM |  |  | 6.7 µM | 
C=CCOc1c(C)c(C)c2c(c1C)CCC(C)(COc1c(C)cc(/C=C3\SC(=O)NC3=O)cc1C)O2 (stereo not drawn) [TG-52] |  |  | 4.5 ± 0.2 µM |  |  | 7.5 µM | 
C=CCOc1c(C)c(C)c2c(c1C)CCC(C)(COc1ccc(/C=C3\SC(=O)NC3=O)c3ccccc13)O2 (stereo not drawn) [TG-53] |  |  | 3.3 ± 0.3 µM |  |  | 3.4 µM | 
C=CCOc1c(C)c(C)c2c(c1C)CCC(C)(COc1c(Br)cc(/C=C3\SC(=O)NC3=O)cc1OC)O2 (stereo not drawn) [TG-54] |  |  |  |  |  | 3.8 µM | 
C=CCOc1c(C)c(C)c2c(c1C)CCC(C)(COc1ccc(/C=C3\SC(=O)NC3=O)cc1OCC)O2 (stereo not drawn) [TG-55] |  |  |  |  |  | > 7.5 µM | 
CC(C)=CCOc1c(C)c(C)c2c(c1C)CCC(C)(COc1ccc(/C=C3\SC(=S)NC3=O)cc1Br)O2 (stereo not drawn) [TG-89] |  |  | 4.4 ± 0.4 µM |  |  |  | 
CN(CCOc1ccc(C=C2SC(O)=NC2=O)cc1)c1ccccn1 [Δ2-RG, 5-{4-[2-(methyl-pyridin-2-yl-amino)-ethoxy]-benzylidene}-thiazolidine-2,4-dione] | > 50 µM | > 50 µM |  |  |  |  | 
